Assay [1] is described as follows: Cytotoxicity against human SF268 cells assessed as growth level at 10 uM after 48 hrs by SRB assay. The class given is functional, SF-268. Background: The SRB assay estimates cell density from bound dye.
Assay [2] is described as follows: Cytotoxicity against human IGROV1 cells assessed as growth level at 10 uM after 48 hrs by SRB assay. The class given is functional, IGROV-1.
The nature of assay [3]: Cytotoxicity against human MOLT4 cells assessed as growth level at 10 uM after 48 hrs by SRB assay. The class given is functional, MOLT-4.
A short description of assay [4]: Cytotoxicity against human SW620 cells assessed as growth level at 10 uM after 48 hrs by SRB assay. The assay is classed as functional, SW-620.
The test system of the next assay is NCI-H460. Description: Cytotoxicity against human NCI-H460 cells assessed as growth level at 10 uM after 48 hrs by SRB assay. The class given is functional.
Another assay deals with SN12C. The assay can be described thus: Cytotoxicity against human SN12C cells assessed as growth level at 10 uM after 48 hrs by SRB assay. The class given is functional.
The subject of another assay is SR. The assay can be described thus: Cytotoxicity against human SR cells assessed as growth level at 10 uM after 48 hrs by SRB assay. The class given is functional.
Assay [5] in a line: Cytotoxicity against human HOP62 cells assessed as growth level at 10 uM after 48 hrs by SRB assay. The assay is classed as functional, HOP-62.
Another assay concerns MDA-MB-468. Description: Cytotoxicity against human MDA-MB-468 cells assessed as growth level at 10 uM after 48 hrs by SRB assay. The assay is classed as functional.
Assay [6] is described as follows: Cytotoxicity against human Hs578T cells assessed as growth level at 10 uM after 48 hrs by SRB assay. The class given is functional, Hs-578T.
For a further assay, the system named is NCI-H322M. Description: Cytotoxicity against human NCI-H322M cells assessed as growth level at 10 uM after 48 hrs by SRB assay. The class given is functional.
For a further assay, the system named is NCI-H522. Description: Cytotoxicity against human NCI-H522 cells assessed as growth level at 10 uM after 48 hrs by SRB assay. The assay is classed as functional.
A short description of assay [7]: Cytotoxicity against human HL-60(TB) cells assessed as growth level at 10 uM after 48 hrs by SRB assay. The class given is functional.
Assay [8] is described as follows: Cytotoxicity against human HCT116 cells assessed as growth level at 10 uM after 48 hrs by SRB assay. The assay is classed as functional, HCT-116.
A further assay relates to U-251. Description: Cytotoxicity against human U251 cells assessed as growth level at 10 uM after 48 hrs by SRB assay. The class given is functional.
The next assay has as its system NCI-H23. The assay can be described thus: Cytotoxicity against human NCI-H23 cells assessed as growth level at 10 uM after 48 hrs by SRB assay. The assay is classed as functional.
The next assay concerns MDA-MB-435. The assay can be described thus: Cytotoxicity against human MDA-MB-435 cells assessed as growth level at 10 uM after 48 hrs by SRB assay. The class given is functional.
Assay [9] is described as follows: Cytotoxicity against human OVCAR4 cells assessed as growth level at 10 uM after 48 hrs by SRB assay. The assay is classed as functional, OVCAR-4.
The next assay relates to SK-MEL-5. The assay can be described thus: Cytotoxicity against human SK-MEL-5 cells assessed as growth level at 10 uM after 48 hrs by SRB assay. The class given is functional.
Assay [10] in a line: Cytotoxicity against human DU145 cells assessed as growth level at 10 uM after 48 hrs by SRB assay. The assay is classed as functional, DU-145.
Assay [11] can be described thus: Cytotoxicity against human UACC257 cells assessed as growth level at 10 uM after 48 hrs by SRB assay. The assay is classed as functional, UACC-257.
The next assay concerns MCF7. Description: Cytotoxicity against human MCF7 cells assessed as growth level at 10 uM after 48 hrs by SRB assay. The assay is classed as functional.

The structures appear in SMILES notation.

In the case of `C=C1CC[C@@H]2[C@](C)(COC(C)=O)[C@H](OC(C)=O)CC[C@@]2(C)[C@@H]1CC(Nc1ccc(S(=O)(=O)NC(C)=O)cc1)C1=CCOC1=O` (mixture of isomers), the Activity in assay [1] was 6.72%; in [2], -10.04%; in assay [3], 0.12%; in assay [4], -65.65%; with NCI-H460, 5.29%; with SN12C it was 1.94%. Besides, the Activity in the assay with SR is recorded as 2.08%; in [5] it was 81.97%; in the assay with MDA-MB-468, -53.94%; in assay [6], 32.45%; in the assay on NCI-H322M, 35.29%; in the assay on NCI-H522, -63.21%. The Activity is -31.09% in assay [7]; -63.92% in assay [8]; -65.49% with U-251; 7.36% in the assay with NCI-H23; -38.84% with MDA-MB-435; 26.08% in assay [9]. Besides, the Activity with SK-MEL-5 is reported as 7.36%; in [10], 0.37%; in assay [11], -10.57%; with MCF7, -33.6%.

Consider `C=C1CC[C@@H]2[C@](C)(COC(C)=O)[C@H](OC(C)=O)CC[C@@]2(C)[C@@H]1CC(Sc1ccccc1)C1=CCOC1=O` (mixture of isomers), for which the Activity was 11.62% in assay [1]; 25.2% in assay [2]; -3.93% in [3]; 0.83% in assay [4]; 21.71% in the assay on NCI-H460; 1.3% in the assay on SN12C. Also, the Activity with SR is 2.9%; in [5], -18.21%; with MDA-MB-468, -61.07%; in [6] it was 54.23%; in the assay with NCI-H322M, 67.11%; in the assay on NCI-H522 it was -80.61%. Also, the Activity in [7] was -46.54%; in assay [8], -34.58%; in the assay on U-251 it was 22.94%; in the assay on NCI-H23 it was 24.46%; in the assay with MDA-MB-435, 101.38%; in assay [9] it was 100.23%. The Activity with SK-MEL-5 came out at 13.51%; in assay [10] it was 16.39%; in [11], 29.37%; in the assay on MCF7 it was 2.14%.
